Laboratory results: publication PMC7894522, “Structure Based Design of Bicyclic Peptide Inhibitors of RbAp48” (Angewandte Chemie (International Ed. in English), 2020)
Starred links: 1 amine or outer side, 2 acyl side, 3 side chain; linkers in the order of their positions; H or OH if unused. Positions of bridges follow the written chain, without caps; N, C: chain ends. Residues, ends and D or L forms follow the SMILES beside them. TBMB = c1c(C[*:1])cc(C[*:3])cc1C[*:2]; mXylylene = c1cc(C[*:1])cc(C[*:2])c1; oXylylene = c1ccc(C[*:2])c(C[*:1])c1; pXylylene = c1cc(C[*:2])ccc1C[*:1]; X5 = Brc1cc(C[*:1])cc(C[*:2])c1

Target: RbAp48 (Homo sapiens, UniProt Q09028)
Assay: Competitive fluorescence polarization (FP) assay using complex of peptide 1 and RbAp48
Type: binding
Set-up: Full length RbAp48 was cloned; His tag followed by 3C cleavage site (N, cleaved yes); made in house; host or cells: Sf9 insect cells
Conditions: Supplemental Table 2; competitive FP, tracer 1 nM, RbAp48 15 nM, pH 7.5, 30 min room temperature; read-out: IC50
Description: The binding affinity of our library of synthetic cyclic peptides was evaluated by a competitive fluorescence polarization (FP) assay using a complex formed by peptide 1 and RbAp48. To reduce the length of the peptide it was truncated to the amino acids which seemed most critical according to the crystal structure (residues 676–689, pdb:4pbz). […] We chose to use a cyclization approach to regain affinity, that is, not to induce more interactions but through minimizing the entropic penalty upon binding by reducing the flexibility of the peptide. To this end two amino acids were chosen which are facing one another in the structure (see Figure 1 B/D/E). Two peptides were designed where glutamic acid was used in position 676 (4) or position 680 (5) and lysine in position 688 for both peptides (see Table 1). The macrocycles were formed by connecting the side chains via an amide bond (see Figure 1 D/E). Peptide synthesis was performed on Rink‐amide resin using the Fmoc‐strategy incorporating Fmoc‐L‐Glu(All)‐OH and Fmoc‐L‐Lys(Alloc)‐OH at the sites for cyclization. After completion of the linear synthesis the allyl protecting groups were removed using Pd^0 catalysis and the amide link was formed by using PyBOP. […] Therefore, a range of peptides was synthesized which were cyclized using the same amino acid positions but via a cysteine alkylation strategy (see Figure 1 D/E and Table 1). In this method the residues used for cyclization are replaced with cysteine and benzylic dibromides act as crosslinkers on the unprotected peptides. ^[11] Previous research has shown that such linkers can effectively stabilize cyclic peptides and yield high affinity ligands for protein–protein interaction inhibition. ^[12] Such a linker introduces a xylene group in close vicinity of the hydrophobic patch potentially reconstituting the lost key hydrophobic interactions. To explore a variety of macrocycle conformations we used either ortho‐, meta‐ or para‐substituted dibromides to exchange the linker in both 4 and 5 (see Figure 1 D/E and Table 1). ^[13]
Protein expression and purification
RbAp48 was expressed and purified by the Dortmund Protein Facility. Full length RbAp48 was cloned into a pOPIN vector ligating it to an N-terminal His tag followed by a 3C cleavage site. The protein was expressed from Sf9 cells for 48 h. Cells were harvested and lysed and the protein was purified by loading onto a HisTrap FF crude 5 ml column followed by on-column cleavage using Precission protease. The cleaved protein was then further purified using a HiLoad 26/60 Superdex 200 column.
Fluorescence polarization assay
Fluorescence polarization assays were performed in 384 wells plates in 80 µl volumes. The assay buffer contains 20 mM Tris-HCl, 150 mM NaCl, 0.01% Tween-20 at pH 7.5. The concentration of the fluorescently labelled peptides was 1 nM plates were incubated at room temperature for 30 min before they were read on a Tecan Spark plate reader (λex = 485 nm, λem = 535 nm).
For competitive assays the same conditions were used with a tracer concentration of 1 nM was used and a protein concentration of 15 nM .

Chain of RbAp48 (Q09028 whole entry): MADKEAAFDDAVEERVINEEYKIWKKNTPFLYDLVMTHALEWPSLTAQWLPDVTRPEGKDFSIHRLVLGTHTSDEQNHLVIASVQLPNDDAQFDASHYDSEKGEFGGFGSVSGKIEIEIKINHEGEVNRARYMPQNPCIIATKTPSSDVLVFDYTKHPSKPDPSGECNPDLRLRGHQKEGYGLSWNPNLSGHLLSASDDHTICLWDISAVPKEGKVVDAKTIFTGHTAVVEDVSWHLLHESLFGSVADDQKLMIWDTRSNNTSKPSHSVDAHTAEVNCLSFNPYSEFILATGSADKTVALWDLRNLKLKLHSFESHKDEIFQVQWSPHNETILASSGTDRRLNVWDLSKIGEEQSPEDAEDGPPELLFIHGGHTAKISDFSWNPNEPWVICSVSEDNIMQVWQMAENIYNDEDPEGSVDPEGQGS

SMILES	IC50 [nM]
CC[C@H](C)[C@H](NC(=O)[C@@H]1CCCN1C(=O)[C@H](CC(C)C)NC(=O)[C@H](Cc1ccc(O)cc1)NC(=O)[C@@H]1CCCN1C(=O)[C@H](Cc1c[nH]cn1)NC(=O)[C@H](CCCNC(=N)N)NC(=O)[C@H](C)NC(=O)[C@H](C)NC(=O)[C@H](Cc1c[nH]cn1)NC(=O)[C@H](Cc1c[nH]c2ccccc12)NC(=O)[C@@H]1CCCN1C(=O)[C@H](CCCNC(=N)N)NC(=O)[C@H](CC(C)C)NC(C)=O)C(=O)N[C@@H](CC(N)=O)C(N)=O [Peptide 14] (Ac-LRPWHAARHPYLPIN-NH2)	> 10000
CC(=O)N[C@H]1CSCc2ccc(cc2)CSC[C@@H](C(=O)N[C@@H](CC(N)=O)C(N)=O)NC(=O)[C@@H]2CCCN2C(=O)[C@H](CC(C)C)NC(=O)[C@H](Cc2ccc(O)cc2)NC(=O)[C@@H]2CCCN2C(=O)[C@H](Cc2c[nH]cn2)NC(=O)[C@H](CCCNC(=N)N)NC(=O)[C@H](C)NC(=O)[C@H](C)NC(=O)[C@H](Cc2c[nH]cn2)NC(=O)[C@H](Cc2c[nH]c3ccccc23)NC(=O)[C@@H]2CCCN2C(=O)[C@H](CCCNC(=N)N)NC1=O [Peptide 17] (Ac-CRPWHAARHPYLPCN-NH2; linker 1-14 via pXylylene)	> 10000

The remaining lines, values ahead:

IC50 [nM]	SMILES
335 ± 65	CC(=O)N[C@H]1CSCc2ccc(cc2)CSC[C@@H](C(=O)N[C@@H](C)C(N)=O)NC(=O)[C@@H]2CCCN2C(=O)[C@H](CCCCN)NC(=O)[C@H](Cc2ccc(O)cc2)NC(=O)[C@@H]2CCCN2C(=O)[C@H](Cc2c[nH]cn2)NC(=O)[C@H](CCCNC(=N)N)NC(=O)[C@H](C)NC(=O)[C@H](C)NC(=O)[C@H](CCCNC(=N)N)NC(=O)[C@H](CCCCN)NC(=O)[C@H]([C@@H](C)O)NC1=O [Peptide 27] (Ac-CTKRAARHPYKPCA-NH2; linker 1-13 via pXylylene)
265 ± 7.4	CC(=O)N[C@H]1CSCc2cccc(c2)CSC[C@@H](C(=O)N[C@@H](C)C(N)=O)NC(=O)[C@@H]2CCCN2C(=O)[C@H](CCCCN)NC(=O)[C@H](Cc2ccc(O)cc2)NC(=O)[C@@H]2CCCN2C(=O)[C@H](CCCNC(=N)N)NC(=O)[C@H](CCCNC(=N)N)NC(=O)[C@H](C)NC(=O)[C@H](C)NC(=O)[C@H](Cc2c[nH]cn2)NC(=O)[C@H](CCCCN)NC(=O)[C@H]([C@@H](C)O)NC1=O [Peptide 24] (Ac-CTKHAARRPYKPCA-NH2; linker 1-13 via mXylylene)
31 ± 3.7	CC(=O)N[C@H]1CSCc2cc(Br)cc(c2)CSC[C@@H](C(=O)N[C@@H](C)C(N)=O)NC(=O)[C@@H]2CCCN2C(=O)[C@H](CCCCN)NC(=O)[C@H](Cc2ccc(O)cc2)NC(=O)[C@@H]2CCCN2C(=O)[C@H](CCCNC(=N)N)NC(=O)[C@H](CCCNC(=N)N)NC(=O)[C@H](C)NC(=O)[C@H](C)NC(=O)[C@H](CCCNC(=N)N)NC(=O)[C@H](CCCCN)NC(=O)[C@H]([C@@H](C)O)NC1=O [Peptide 30] (Ac-CTKRAARRPYKPCA-NH2; linker 1-13 via X5 (inferred))
512 ± 48.4	CC(=O)N[C@H]1CSCc2cccc(c2)CSC[C@@H](C(=O)N[C@@H](C)C(N)=O)NC(=O)[C@@H]2CCCN2C(=O)[C@H](CCCCN)NC(=O)[C@H](Cc2ccc(O)cc2)NC(=O)[C@@H]2CCCN2C(=O)[C@H](Cc2c[nH]cn2)NC(=O)[C@H](CCCNC(=N)N)NC(=O)[C@H](C)NC(=O)[C@H](C)NC(=O)[C@H](CCCNC(=N)N)NC(=O)[C@H](CCCCN)NC(=O)[C@H]([C@@H](C)O)NC1=O [Peptide 26] (Ac-CTKRAARHPYKPCA-NH2; linker 1-13 via mXylylene)
245 ± 29.3	CC(=O)N[C@H]1CSCc2ccc(cc2)CSC[C@@H](C(=O)N[C@@H](C)C(N)=O)NC(=O)[C@@H]2CCCN2C(=O)[C@H](CCCCN)NC(=O)[C@H](Cc2ccc(O)cc2)NC(=O)[C@@H]2CCCN2C(=O)[C@H](CCCNC(=N)N)NC(=O)[C@H](CCCNC(=N)N)NC(=O)[C@H](C)NC(=O)[C@H](C)NC(=O)[C@H](CCCNC(=N)N)NC(=O)[C@H](Cc2c[nH]c3ccccc23)NC(=O)[C@H]([C@@H](C)O)NC1=O [Peptide 23] (Ac-CTWRAARRPYKPCA-NH2; linker 1-13 via pXylylene)

Same assay, conditions: Table 1; competitive FP, tracer peptide 1 1 nM, RbAp48 15 nM, 20 mM Tris-HCl, 150 mM NaCl, 0.01% Tween-20, pH 7.5, 30 min room temperature; lower limit set by 15 nM protein; read-out: IC50

SMILES	IC50 [nM]
CC(=O)N[C@@H](CCC(=O)O)C(=O)N[C@H](C(=O)N[C@@H](CCCCN)C(=O)N[C@@H](CCCNC(=N)N)C(=O)N[C@H]1CSCc2ccccc2CSC[C@@H](C(=O)N[C@@H](C)C(N)=O)NC(=O)[C@@H]2CCCN2C(=O)[C@H](CCCCN)NC(=O)[C@H](Cc2ccc(O)cc2)NC(=O)[C@@H]2CCCN2C(=O)[C@H](CCCNC(=N)N)NC(=O)[C@H](CCCNC(=N)N)NC(=O)[C@H](C)NC1=O)[C@@H](C)O [Peptide 10] (Ac-ETKRCARRPYKPCA-NH2; linker 5-13 via oXylylene)	322 ± 56.8
CC(=O)N[C@H]1CSCc2cc3cc(c2)CSC[C@@H](C(=O)N[C@@H](C)C(N)=O)NC(=O)[C@@H]2CCCN2C(=O)[C@H](CCCCN)NC(=O)[C@H](C)NC(=O)[C@@H]2CCCN2C(=O)[C@H](CCCNC(=N)N)NC(=O)[C@H](CCCNC(=N)N)NC(=O)[C@H](C)NC(=O)[C@H](CSC3)NC(=O)[C@H](CCCNC(=N)N)NC(=O)[C@H](CCCCN)NC(=O)[C@H]([C@@H](C)O)NC1=O [Peptide 43] (Ac-CTKRCARRPAKPCA-NH2; linker 1-5-13 via TBMB)	38.3 ± 1.9
CC(=O)N[C@H]1CSCc2cc3cc(c2)CSC[C@@H](C(=O)N[C@@H](C)C(N)=O)NC(=O)[C@@H]2CCCN2C(=O)[C@H](CCCCN)NC(=O)[C@H](Cc2ccc(O)cc2)NC(=O)[C@@H]2CCCN2C(=O)[C@H](C)NC(=O)[C@H](CCCNC(=N)N)NC(=O)[C@H](C)NC(=O)[C@H](CSC3)NC(=O)[C@H](CCCNC(=N)N)NC(=O)[C@H](CCCCN)NC(=O)[C@H]([C@@H](C)O)NC1=O [Peptide 41] (Ac-CTKRCARAPYKPCA-NH2; linker 1-5-13 via TBMB)	24.6 ± 3.9
CC(=O)N[C@H]1CSCc2cc3cc(c2)CSC[C@@H](C(=O)N[C@@H](CCCCN)C(N)=O)NC(=O)[C@H](CCCNC(=N)N)NC(=O)[C@@H]2CCCN2C(=O)[C@H](C)NC(=O)[C@H]([C@@H](C)O)NC(=O)[C@H](CCCCN)NC(=O)[C@H](Cc2ccc(O)cc2)NC(=O)[C@H](CCCNC(=N)N)NC(=O)[C@H](CSC3)NC(=O)[C@H](C)NC(=O)[C@H](CCCNC(=N)N)NC(=O)[C@@H]2CCCN2C1=O [Peptide 36] (Ac-CPRACRYKTAPRCK-NH2; linker 1-5-13 via TBMB)	> 10000

Further lines, results first:

IC50 [nM]	SMILES
18.7 ± 4.1	CC(=O)N[C@H]1CSCc2cccc(c2)CSC[C@@H](C(=O)N[C@@H](C)C(N)=O)NC(=O)[C@@H]2CCCN2C(=O)[C@H](CCCCN)NC(=O)[C@H](Cc2ccc(O)cc2)NC(=O)[C@@H]2CCCN2C(=O)[C@H](CCCNC(=N)N)NC(=O)[C@H](CCCNC(=N)N)NC(=O)[C@H](C)NC(=O)[C@H](C)NC(=O)[C@H](CCCNC(=N)N)NC(=O)[C@H](CCCCN)NC(=O)[C@H]([C@@H](C)O)NC1=O [Peptide 7] (Ac-CTKRAARRPYKPCA-NH2; linker 1-13 via mXylylene)
15.6 ± 2.2	CC(=O)N[C@H]1CSCc2cc3cc(c2)CSC[C@H](NC(=O)[C@H](CCCNC(=N)N)NC(=O)[C@H](CCCCN)NC(=O)[C@H]([C@@H](C)O)NC1=O)C(=O)N[C@@H](C)C(=O)N[C@@H](CCCNC(=N)N)C(=O)N[C@@H](CCCNC(=N)N)C(=O)N1CCC[C@H]1C(=O)N[C@@H](Cc1ccc(O)cc1)C(=O)N[C@@H](CCCCN)C(=O)N[C@@H](C)C(=O)N[C@H](C(=O)N[C@@H](C)C(N)=O)CSC3 [Peptide 45] (Ac-CTKRCARRPYKACA-NH2; linker 1-5-13 via TBMB)
77.4 ± 9.6	CC(=O)N[C@H]1CSCc2cc3cc(c2)CSC[C@@H](C(=O)N[C@@H](C)C(N)=O)NC(=O)[C@@H]2CCCN2C(=O)[C@H](CCCCN)NC(=O)[C@H](Cc2ccc(O)cc2)NC(=O)[C@@H]2CCCN2C(=O)[C@H](CCCNC(=N)N)NC(=O)[C@H](CCCNC(=N)N)NC(=O)[C@H](C)NC(=O)[C@H](CSC3)NC(=O)[C@H](C)NC(=O)[C@H](CCCCN)NC(=O)[C@H]([C@@H](C)O)NC1=O [Peptide 39] (Ac-CTKACARRPYKPCA-NH2; linker 1-5-13 via TBMB)

Same assay, conditions: competitive FP assay

FP activity in words	SMILES
completely lose affinity	CC(=O)N[C@H]1CSCc2cc3cc(c2)CSC[C@@H](C(=O)N[C@@H](CCCCN)C(N)=O)NC(=O)[C@H](CCCNC(=N)N)NC(=O)[C@@H]2CCCN2C(=O)[C@H](C)NC(=O)[C@H]([C@@H](C)O)NC(=O)[C@H](CCCCN)NC(=O)[C@H](Cc2ccc(O)cc2)NC(=O)[C@H](CCCNC(=N)N)NC(=O)[C@H](CSC3)NC(=O)[C@H](C)NC(=O)[C@H](CCCNC(=N)N)NC(=O)[C@@H]2CCCN2C1=O [Peptide 36] (Ac-CPRACRYKTAPRCK-NH2; linker 1-5-13 via TBMB)
